Measurements from patent US20180161300A1, “CITRIN INHIBITORS FOR THE TREATMENT OF CANCER” (Yeda Research And Development Co. Ltd., priority 2015, published 2018).
Blank lines part the entries; values can stand above or below the compound they belong to.

How the values were obtained:
Citrin [1] = assay: Western blot of citrin protein after shCitrin; format: cell-based, human; details: MDA-MB-435, Dox induction
Method: Cells were lysed in RIPA (Sigma-Aldrich) and 0.5% protease inhibitor cocktail (Calbiochem). After centrifugation, the supernatant was collected and protein content was evaluated by the Bradford assay. One hundred micrograms from each sample under reducing conditions were loaded into each lane and separated by electrophoresis on a 10% SDS polyacrylamide gel. After electrophoresis, proteins were transferred to Immobilon transfer membranes (Tamar). Non-specific binding was blocked by incubation with TBST (10 mM Tris-HCl (pH 8.0), 150 mM NaCl, 0.1% Tween 20), containing 3% albumin from bovine serum for 1 hour at 25° C. Membranes were subsequently incubated with antibodies against Citrin (1:200, H00010165-M01, Abnova), ASS1 (1:500, sc-99178, Santa Cruz Biotechnology) and p97 (1:10,000, PA5-22257, Thermo Scientific). Antibody was detected using peroxidase-conjugated AffiniPure goat anti-rabbit IgG or goat anti-mouse IgG (Jackson ImmunoResearch) and enhanced chemiluminescence Western blotting detection reagents (EZ-Gel, Biological Industries). Gels were quantified by Gel Doc XR+(BioRad) and analysed by ImageLab 4.1 software (BioRad). The band area was calculated by the intensity of the band. The obtained value was then divided by the value obtained from the loading control. […]

[2] = system: U2OS human osteosarcoma cell-line transduced with shASS1; assay: Crystal violet proliferation, arginine deprivation combined with drug treatments; format: cell-based
Method: Cells were seeded in 12-well plates at 70,000 cells/well in a triplicate. Time 0 was calculated as the time the cells became adherent, which was after about 6 hours from plating. For each time point, cells were washed with PBS X1 and fixed in 4% PFA (in PBS). Cells were then stained with 0.1% Crystal Violet (Catalog #: C0775, Sigma-Aldrich) for 20 minutes (1 ml per well) and washed with water. Cells were then incubated with 10% acetic acid for 20 minutes with shaking. Extract was then diluted 1:4 in water and absorbance was measured at 590 nm every 24 hours.
U2OS human osteosarcoma cell-line was seeded in 6-well plates at 80,000 cells/well. The following day, cells were treated with either 100 nM Rapamycin (#R0395, Sigma-Aldrich) or with 10 μM 5FU (#F6627, Sigma-Aldrich) in regular medium, with 10% dialyzed FCS-arginine-free-RPMI (Catalogue No. 06-1104-34-1A, Biological Industries, Kibbutz beit-haemek, Israel), or with both arginine depleted medium and one of these drugs. Rapamycin and 5FU were renewed into the medium every day, whereas fresh arginine-free medium was supplemented twice a week.

Citrin [3] = target: T1, Citrin (Homo sapiens, UniProt Q9UJS0); assay: Metabolomics analysis for potential citrin inhibitors (15N-alpha-glutamine labelling, GC-MS); format: cell-based; parameters: endogenous in cells; host or cells: U2OS osteosarcoma cells; details: U2OS, 4 mM L-Glutamine (ALPHA-15N), compound 10-100 μM, 24 hours
T1 sequence (Q9UJS0 1-675): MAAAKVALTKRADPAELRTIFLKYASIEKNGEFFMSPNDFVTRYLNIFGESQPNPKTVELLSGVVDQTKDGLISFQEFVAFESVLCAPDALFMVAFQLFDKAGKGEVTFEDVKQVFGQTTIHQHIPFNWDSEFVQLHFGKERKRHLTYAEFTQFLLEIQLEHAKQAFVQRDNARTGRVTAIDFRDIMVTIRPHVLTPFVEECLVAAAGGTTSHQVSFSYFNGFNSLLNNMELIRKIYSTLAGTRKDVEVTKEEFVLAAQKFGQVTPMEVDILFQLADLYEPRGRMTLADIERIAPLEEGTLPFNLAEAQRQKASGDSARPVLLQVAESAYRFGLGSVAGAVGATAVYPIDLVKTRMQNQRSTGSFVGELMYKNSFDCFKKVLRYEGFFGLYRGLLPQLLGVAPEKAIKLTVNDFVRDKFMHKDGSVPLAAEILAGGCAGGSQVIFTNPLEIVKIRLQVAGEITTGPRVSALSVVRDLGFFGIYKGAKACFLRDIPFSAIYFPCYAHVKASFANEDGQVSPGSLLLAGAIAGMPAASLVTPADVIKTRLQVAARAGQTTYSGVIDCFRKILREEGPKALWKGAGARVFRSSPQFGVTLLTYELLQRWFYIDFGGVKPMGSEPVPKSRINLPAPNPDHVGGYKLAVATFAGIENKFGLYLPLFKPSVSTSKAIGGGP
Method: Osteosarcoma cell line (U2OS) were seeded at 1.5 to 2×10^6 cells per 10 cm plate. The next day (60% confluence) the cells were incubated with 4 mM of L-Glutamine (ALPHA-15N, 98%; Cat. Number: NLM-1016-1; Cambridge Isotope Laboratories) in the presence of either control (medium only) or one of compounds 1, 2, or 3 (at a concentration range between 10-100 μM), for 24 hours. Compound “1”=D-Glutamic acid; compound “2”=L-glutamic acid-5-methyl ester; “compound “3”=L-glutamic acid-gamma-benzyl ester. Compounds 1-3 are commercially available and were bought from Sigma Aldrich. Subsequently, cells were washed with ice-cold saline, lysed with 50% methanol in water and quickly scraped followed by three freeze-thaw cycles in liquid nitrogen. The insoluble material was pelleted in a cooled centrifuge (4° C.) and the supernatant was collected for consequent GC-MS analysis. Samples were dried under air flow at 42° C. using a Techne Dry-Block Heater with sample concentrator (Bibby Scientific) and the dried samples were treated with 40 μl of a methoxyamine hydrochloride solution (20 mg ml^−1 in pyridine) at 37° C. for 90 minutes while shaking followed by incubation with 70 μl N,O-bis (trimethylsilyl) trifluoroacetamide (Sigma) at 37° C. for an additional 30 minutes.
GC-MS analysis used a gas chromatograph (7820AN, Agilent Technologies) interfaced with a mass spectrometer (5975 Agilent Technologies). An HP-5 ms capillary column 30 m×250 μm×0.25μm (19091S-433, Agilent Technologies) was used. Helium carrier gas was maintained at a constant flow rate of 1.0 ml min −1. The GC column temperature was programmed from 70 to 150° C. via a ramp of 4° C. min −1, […] via a ramp of 9° C. min −1, 215-300° C. via a ramp of 25° C. min −1 and maintained at 300° C. for an additional 5 minutes. The MS was by electron impact ionization and operated in full-scan mode from m/z=30-500. The inlet and MS transfer line temperatures were maintained at 280° C., and the ion source temperature was 250° C. Sample injection (1 μl) was in splitless mode.
Specifically, Aspartate at a mass of M+1 is a metabolite that comes out of the mitochondria via Citrin.

Citrin [4] = target: T1, Citrin; details: at 1 about mM; cited from earlier work

Compound: 5′-GTATCCTATCGATCTTGTA-3′ (expressed or natural sequence) [sh909]
citrin protein production (Western blot) (Citrin [1]): no production of citrin

Compound: 5′-TTAAGAAAGTGCTACGCTA-3′ (expressed or natural sequence) [sh901]
citrin protein production (Western blot) (Citrin [1]): no production of citrin

Compound: O=c1[nH]cc(F)c(=O)[nH]1 [5FU, Fluorouracil]
proliferation, drug together with arginine depleted medium ([2]; U2OS shASS1, arginine depleted medium plus 100 nM Rapamycin or 10 μM 5FU): significant additive beneficial effect
proliferation, isolated drug treatment ([2]; U2OS shASS1, complete medium, 100 nM Rapamycin or 10 μM 5FU): more beneficial than Rapamycin

Compound: N[C@H](CCC(=O)O)C(=O)O [Compound 1, D-Glutamic acid]
Uracil M+1 inhibition (in words) (Citrin [3]): inhibited

Uracil M+1 inhibition (in words) (Citrin [3]): inhibited
Compound: COC(=O)CC[C@H](N)C(=O)O [Compound 2, L-glutamic acid-5-methyl ester]

Aspartate M+1 relative to control (Citrin [3]): inhibited
Uracil M+1 inhibition (Citrin [3]): ~35%
Compound: N[C@@H](CCC(=O)OCc1ccccc1)C(=O)O [Compound 3, L-glutamic acid-gamma-benzyl ester]

Compound: CCN1C(=O)C=CC1=O [N-ethylmaleimid]
inhibition of citrin in vitro (Citrin [4]): about 50%
